Measured values as given in patent publication US12404268B2, “2-heteroaryl aminoquinazolinone derivative” (Sumitomo Pharma Co., Ltd., priority 2020, dated 2025).

system: neurons induced to differentiate from SCN1A gene deficient human iPS cells; assay: Test for measuring hyperexcitation suppression activity (spontaneous calcium oscillation frequency); format: cell-based; settings: Homo sapiens, Neuron; @0.1 μM; read-out: inhibition rate
From the text: Test for Measuring Hyperexcitation Suppression Activity Using Neurons Induced to Differentiate from SCN1A Gene Deficient Human iPS Cells
(1) Induction of Differentiation from Human iPS cells to Neurons
Half of the culture solution was exchanged once every 3 to 4 days.
(2) Fluorescent Calcium Probe Treatment, Addition of Compound, and Evaluation of Intracellular Calcium Concentration
Half of the culture solution was removed on day 60 from induction of differentiation or thereafter. A medium for measurement comprising a fluorescent calcium probe (Molecular Device, product name: FLIPR Calcium 6 Assay Bulk Kit, cat #R8191) was added at an amount equal to the remaining medium. The culture was left standing for 30 minutes and subjected to measurement.
The test compounds were serially diluted with a dimethyl sulfoxide (DMSO) solution so that the final concentration would be 0.1 to 100 μM to prepare a concentrate with a concentration that is 6-fold of the final concentration.
The intensity of fluorescence of a calcium probe was measured over time with FDSS7000EX (Hamamatsu Photonics) to evaluate the change in intracellular calcium concentrations. First, the intensity of fluorescence was measured for 2 minutes. The compound solutions were then added using FDSS7000EX for an additional 8 minute measurement of fluorescence intensity. The frequency of spontaneous calcium oscillation was quantified as an indicator of nerve excitation. With the frequency for 2 minutes before the addition of the compound solutions as 100%, the ratio of frequency for the last 2 minutes after addition of the compound solutions was calculated.

Row | Structure (SMILES) | inhibition at 0.1 µM
1 | O=c1c2cc(F)ccc2nc(Nc2cccnc2)n1-c1ccccc1F [Example 108, 6-fluoro-3-(2-fluorophenyl)-2-(pyridin-3-ylamino)quinazolin-4(3H)-one] | 62%
2 | Cc1ccccc1-n1c(Nc2cncc(F)c2)nc2ccc(F)cc2c1=O [Example 4, 6-fluoro-2-((5-fluoropyridin-3-yl)amino)-3-(o-tolyl)quinazolin-4(3H)-one] | 88%
3 | Cc1ccc(F)cc1-n1c(Nc2cccnc2)nc2ccc(C#N)cc2c1=O [Example 104, 3-(5-fluoro-2-methylphenyl)-4-oxo-2-(pyridin-3-ylamino)-3,4-dihydroquinazoline-6-carbonitrile] | 29%

same assay, conditions: Homo sapiens, Neuron; @1 μM; read-out: inhibition rate

Row | Structure (SMILES) | inhibition at 1 µM
4 | COc1cccc(-n2c(Nc3cccnc3)nc3ccc(F)cc3c2=O)c1 [Example 133] | 51%
5 | O=c1c2cc(F)ccc2nc(Nc2cccnc2)n1-c1ccc(F)cc1 [Example 124] | 32%
6 | Cc1cccc(Nc2nc3ccc(F)cc3c(=O)n2-c2ccccc2)n1 [Example 138] | 70%
7 | Cc1ccc(-n2c(Nc3cccnc3)nc3ccc(C#N)cc3c2=O)c(Cl)c1 [Example 103] | 84%
8 | C[C@]1(N)CC[C@@H](n2c(Nc3cccnc3)nc3ccc(F)cc3c2=O)CC1 [Example 89] | 20%
9 | O=c1c2cc(F)ccc2nc(Nc2cccnc2)n1-c1cccnc1 [Example 35, 6-fluoro-3-(pyridin-3-yl)-2-(pyridin-3-ylamino)quinazolin-4(3H)-one] | 88%
10 | COc1ccc(-n2c(Nc3cccnc3)nc3ccc(F)cc3c2=O)cc1 [Example 143] | 45%
11 | C[C@@H](c1ccccc1)n1c(Nc2cccnc2)nc2ccc(F)cc2c1=O [Example 163] | 70%
12 | C[C@]1(N)CC[C@H](n2c(Nc3cccnc3)nc3ccccc3c2=O)CC1 [Example 73] | 86%
13 | O=c1c2ccccc2nc(Nc2ccc3ocnc3c2)n1-c1ccccc1 [Example 1, 2-(benzo[d]oxazol-5-ylamino)-3-phenylquinazolin-4(3H)-one] | 31%
14 | N#Cc1ccc2nc(Nc3cccnc3)n(-c3ccccc3F)c(=O)c2c1 [Example 110] | 66%
15 | Cc1ccccc1-n1c(Nc2cccnc2)nc2cccc(F)c2c1=O [Example 120] | 69%
16 | O=c1c2cc(F)ccc2nc(Nc2cccnc2)n1[C@H]1CC[C@H](O)CC1 [Example 180] | 35%
17 | Cc1cncc(Nc2nc3ccc(F)cc3c(=O)n2-c2ccccc2)c1 [Example 27] | 37%
18 | CN1CCC[C@H](n2c(Nc3cccnc3)nc3ccccc3c2=O)C1 [Example 71] | 51%
19 | O=c1c2cc(F)ccc2nc(Nc2cc(F)ccn2)n1-c1ccccc1 [Example 127, 6-fluoro-2-((4-fluoropyridin-2-yl)amino)-3-phenylquinazolin-4(3H)-one] | 96%

same assay, conditions: Homo sapiens, Neuron; @10 μM; read-out: inhibition rate

Row | Structure (SMILES) | inhibition at 10 µM
20 | O=c1c2cc(Cl)ccc2nc(Nc2ccc3nncn3c2)n1-c1ccccc1 [Example 16] | 42%
21 | O=c1c2cc(Cl)ccc2nc(Nc2ccnnc2)n1-c1ccccc1 [Example 34] | 57%
22 | COc1ccc(Nc2nc3ccc(Cl)cc3c(=O)n2-c2ccccc2)cn1 [Example 22] | 70%
23 | CN1CC2(CC(n3c(Nc4cccnc4)nc4ccccc4c3=O)C2)C1 [Example 83] | 96%
24 | O=c1c2cc(F)ccc2nc(Nc2cccnc2)n1C1CCCCC1 [Example 61] | 79%
25 | O=c1c2ccccc2nc(Nc2cccn3ccnc23)n1-c1ccccc1 [Example 66] | 62%
26 | Cn1cnc2ccc(Nc3nc4ccccc4c(=O)n3-c3ccccc3)cc21 [Example 2, 2-((1-methyl-1H-benzo[d]imidazol-6-yl)amino)-3-phenylquinazolin-4(3H)-one] | 57%
27 | CN1CC[C@H](n2c(Nc3cccnc3)nc3ccccc3c2=O)C1 [Example 77] | 26%
28 | O=c1c2cc(F)ccc2nc(Nc2ccncc2)n1-c1ccccc1 [Example 131] | 100%
29 | COc1cncc(-n2c(Nc3cccnc3)nc3ccc(F)cc3c2=O)c1 [Example 185] | 31%
30 | O=c1c2cc(Cl)ccc2nc(Nc2ccncc2)n1-c1ccccc1 [Example 33] | 100%
31 | O=c1c2ccccc2nc(Nc2cccnc2)n1C1CCC(F)(F)CC1 [Example 58] | 100%
32 | O=c1c2cc(F)ccc2nc(Nc2cccnc2)n1CC1CCCCC1 [Example 155] | 81%
33 | CN1CCC[C@@H](n2c(Nc3cccnc3)nc3ccc(F)cc3c2=O)C1 [Example 100] | 100%
34 | CCc1ccc(Nc2nc3ccc(Cl)cc3c(=O)n2-c2ccccc2)cn1 [Example 49] | 34%
35 | O=c1c2cc(F)ccc2nc(Nc2cccnc2)n1[C@H]1CCCOC1 [Example 164] | 92%
36 | CC(C)c1ccc(Nc2nc3ccc(Cl)cc3c(=O)n2-c2ccccc2)cn1 [Example 44] | 81%
37 | O=c1c2cc(F)ccc2nc(Nc2cccnc2)n1C1CC1 [Example 165] | 100%
38 | CCc1ccc(Nc2nc3ccc(F)cc3c(=O)n2-c2ccccc2)cn1 [Example 50] | 100%
39 | O=c1c2cc(F)ccc2nc(Nc2ncccc2F)n1-c1ccccc1 [Example 126] | 80%
40 | CN1CC(c2ccccc2)(n2c(Nc3cccnc3)nc3ccc(F)cc3c2=O)C1 [Example 176] | 88%
41 | C[C@@H]1CN(C)CC[C@H]1n1c(Nc2cccnc2)nc2ccc(F)cc2c1=O [Example 166] | 36%
42 | O=c1c2cc(F)ccc2nc(Nc2cccnc2)n1C1CCCC1 [Example 60] | 100%
43 | O=c1c2cccnc2nc(Nc2cccnc2)n1-c1ccccc1 [Example 152] | 15%

same assay, conditions: Homo sapiens, Neuron; @100 μM; read-out: inhibition rate

Row | Structure (SMILES) | inhibition at 100 µM
44 | O=c1c2c(F)cccc2nc(Nc2cncc(F)c2)n1-c1ccccc1 [Example 117] | 71%
45 | Nc1ccc2nc(Nc3cccnc3)n(-c3ccccc3)c(=O)c2c1 [Example 177] | 100%
46 | Cc1cc(Nc2nc3ccc(Cl)cc3c(=O)n2-c2ccccc2)ncn1 [Example 46] | 34%

same assay, conditions: Neuron; SCN1A gene deficient human iPS cell-derived neurons; FLIPR Calcium 6, FDSS7000EX; read-out: IC50 (50% inhibitory concentration, frequency of spontaneous calcium oscillation)

Row | IC50 | Structure (SMILES)
47 | > 100 µM | O=c1c2cccc(Cl)c2nc(Nc2cccnc2)n1-c1ccccc1 [Example 219]
48 | > 10 µM | O=c1c2cc(Cl)ccc2nc(Nc2cn[nH]c2)n1-c1ccccc1 [Example 217]
49 | > 10 µM | COCCn1c(Nc2cccnc2)nc2ccc(F)cc2c1=O [Example 203]
50 | > 10 µM | O=c1c2ccncc2nc(Nc2cccnc2)n1-c1ccccc1 [Example 192]
51 | 0.3 µM | COc1ncccc1Nc1nc2ccc(Cl)cc2c(=O)n1-c1ccccc1 [Example 10, 6-chloro-2-((2-methoxypyridin-3-yl)amino)-3-phenylquinazolin-4(3H)-one]
52 | > 10 µM | O=c1c2cc(F)ncc2nc(Nc2cccnc2)n1CCc1ccccn1 [Example 197]
53 | > 100 µM | O=c1c2ccc(F)cc2nc(Nc2cccnc2)n1-c1ccccc1 [Example 222]
54 | > 10 µM | Cc1ccc2nc(Nc3cccnc3)n(-c3ccccc3)c(=O)c2n1 [Example 198]
55 | > 10 µM | O=c1c2cnccc2nc(Nc2cccnc2)n1-c1ccccc1 [Example 189]
56 | 6.5 µM | O=c1c2cc(Cl)ccc2nc(Nc2ncccn2)n1-c1ccccc1 [Example 7]
57 | 0.8 µM | O=c1c2cc(F)ccc2nc(Nc2cccnn2)n1-c1ccccc1 [Example 18]
